In ChEMBL document CHEMBL3792365, “Dioxol and dihydrodioxin analogs of 2- and 3-phenylacetonitriles as potent anti-cancer agents with nanomolar activity against a variety of human cancer cells” (2016):

How the values were obtained:
Format in all cases: functional
U-251 = test: Growth inhibition of human U251 cells at 10 uM after 48 hrs by sulforhodamine B assay; conditions: U-251, 48 h, values are per cent of control
[1] = Growth inhibition of human LOXIMVI cells at 10 uM after 48 hrs by sulforhodamine B assay; conditions: LOX IMVI, values are per cent of control
M14 = test: Growth inhibition of human M14 cells at 10 uM after 48 hrs by sulforhodamine B assay; conditions: M14, 48 h, values are per cent of control
MDA-MB-435 = test: Growth inhibition of human MDA-MB-435 cells at 10 uM after 48 hrs by sulforhodamine B assay; conditions: MDA-MB-435, 48 h, values are per cent of control
SK-MEL-2 = test: Growth inhibition of human SK-MEL-2 cells at 10 uM after 48 hrs by sulforhodamine B assay; conditions: SK-MEL-2, 48 h, values are per cent of control
SK-MEL-28 = test: Growth inhibition of human SK-MEL-28 cells at 10 uM after 48 hrs by sulforhodamine B assay; conditions: SK-MEL-28, 48 h, values are per cent of control
SK-MEL-5 = test: Growth inhibition of human SK-MEL-5 cells at 10 uM after 48 hrs by sulforhodamine B assay; conditions: SK-MEL-5, 48 h, values are per cent of control
[2] = Growth inhibition of human UACC62 cells at 10 uM after 48 hrs by sulforhodamine B assay; conditions: UACC-62, 48 h, values are per cent of control
[3] = Growth inhibition of human IGROV1 cells at 10 uM after 48 hrs by sulforhodamine B assay; conditions: IGROV-1, 48 h, values are per cent of control
[4] = Growth inhibition of human OVCAR4 cells at 10 uM after 48 hrs by sulforhodamine B assay; conditions: OVCAR-4, 48 h, values are per cent of control
[5] = Growth inhibition of human OVCAR8 cells at 10 uM after 48 hrs by sulforhodamine B assay; conditions: OVCAR-8, 48 h, values are per cent of control
[6] = Growth inhibition of human NCI-ADR-RES cells at 10 uM after 48 hrs by sulforhodamine B assay; conditions: values are per cent of control
786-0 = test: Growth inhibition of human 786-0 cells at 10 uM after 48 hrs by sulforhodamine B assay; conditions: 786-0, 48 h, values are per cent of control
ACHN = test: Growth inhibition of human ACHN cells at 10 uM after 48 hrs by sulforhodamine B assay; conditions: values are per cent of control
[7] = Growth inhibition of human Caki1 cells at 10 uM after 48 hrs by sulforhodamine B assay; conditions: CAKI-1, 48 h, values are per cent of control
[8] = Growth inhibition of human RXF393 cells at 10 uM after 48 hrs by sulforhodamine B assay; conditions: RXF 393, 48 h, values are per cent of control
SN12C = test: Growth inhibition of human SN12C cells at 10 uM after 48 hrs by sulforhodamine B assay; conditions: values are per cent of control
[9] = Growth inhibition of human TK10 cells at 10 uM after 48 hrs by sulforhodamine B assay; conditions: TK-10, 48 h, values are per cent of control
[10] = Growth inhibition of human DU145 cells at 10 uM after 48 hrs by sulforhodamine B assay; conditions: DU-145, 48 h, values are per cent of control
[11] = Growth inhibition of human Hs 578T cells at 10 uM after 48 hrs by sulforhodamine B assay; conditions: values are per cent of control
[12] = Growth inhibition of human BT549 cells at 10 uM after 48 hrs by sulforhodamine B assay; conditions: BT-549, 48 h, values are per cent of control
T47D = test: Growth inhibition of human T47D cells at 10 uM after 48 hrs by sulforhodamine B assay; conditions: values are per cent of control
MDA-MB-468 = test: Growth inhibition of human MDA-MB-468 cells at 10 uM after 48 hrs by sulforhodamine B assay; conditions: MDA-MB-468, 48 h, values are per cent of control
SR = test: Growth inhibition of human SR cells at 10 uM after 48 hrs by sulforhodamine B assay; conditions: values are per cent of control
A549 = test: Growth inhibition of human A549/ATCC cells at 10 uM after 48 hrs by sulforhodamine B assay; conditions: A549, 48 h, values are per cent of control
[13] = Growth inhibition of human HOP62 cells at 10 uM after 48 hrs by sulforhodamine B assay; conditions: HOP-62, 48 h, values are per cent of control
NCI-H226 = test: Growth inhibition of human NCI-H226 cells at 10 uM after 48 hrs by sulforhodamine B assay; conditions: NCI-H226, 48 h, values are per cent of control
NCI-H23 = test: Growth inhibition of human NCI-H23 cells at 10 uM after 48 hrs by sulforhodamine B assay; conditions: NCI-H23, 48 h, values are per cent of control
NCI-H322M = test: Growth inhibition of human NCI-H322M cells at 10 uM after 48 hrs by sulforhodamine B assay; conditions: values are per cent of control
NCI-H460 = test: Growth inhibition of human NCI-H460 cells at 10 uM after 48 hrs by sulforhodamine B assay; conditions: NCI-H460, 48 h, values are per cent of control
NCI-H522 = test: Growth inhibition of human NCI-H522 cells at 10 uM after 48 hrs by sulforhodamine B assay; conditions: NCI-H522, 48 h, values are per cent of control
[14] = Growth inhibition of human COLO205 cells at 10 uM after 48 hrs by sulforhodamine B assay; conditions: COLO 205, 48 h, values are per cent of control
[15] = Growth inhibition of human HCC2998 cells at 10 uM after 48 hrs by sulforhodamine B assay; conditions: HCC 2998, 48 h, values are per cent of control
[16] = Growth inhibition of human HCT116 cells at 10 uM after 48 hrs by sulforhodamine B assay; conditions: HCT-116, 48 h, values are per cent of control
[17] = Growth inhibition of human HCT15 cells at 10 uM after 48 hrs by sulforhodamine B assay; conditions: HCT-15, 48 h, values are per cent of control
[18] = Growth inhibition of human SW620 cells at 10 uM after 48 hrs by sulforhodamine B assay; conditions: SW-620, 48 h, values are per cent of control
[19] = Growth inhibition of human SF268 cells at 10 uM after 48 hrs by sulforhodamine B assay; conditions: SF-268, 48 h, values are per cent of control
[20] = Growth inhibition of human SF295 cells at 10 uM after 48 hrs by sulforhodamine B assay; conditions: SF-295, 48 h, values are per cent of control
[21] = Growth inhibition of human SF539 cells at 10 uM after 48 hrs by sulforhodamine B assay; conditions: SF-539, 48 h, values are per cent of control
[22] = Growth inhibition of human SNB19 cells at 10 uM after 48 hrs by sulforhodamine B assay; conditions: SNB-19, 48 h, values are per cent of control

In the case of N#C/C(=C\c1ccc(Cl)c(Cl)c1)c1ccc2c(c1)OCO2, the growth, % of control at 10 µM (U-251) is reported as 86.3%, the growth, % of control at 10 µM [1] is reported as 62.7% and the growth, % of control at 10 µM (M14) is reported as 96.5%. For the same molecule, the growth, % of control at 10 µM (MDA-MB-435) was 93.7%, the growth, % of control at 10 µM (SK-MEL-2) was 89.7% and the growth, % of control at 10 µM (SK-MEL-28) was 105%. It also gave a growth, % of control at 10 µM (SK-MEL-5) of 98.4%, a growth, % of control at 10 µM [2] of 108% and a growth, % of control at 10 µM [3] of 67.2%. It also gave a growth, % of control at 10 µM [4] of 26.1%, a growth, % of control at 10 µM [5] of 70.9% and a growth, % of control at 10 µM [6] of 79.3%. For the same molecule, the growth, % of control at 10 µM (786-0) was 72.4%, the growth, % of control at 10 µM (ACHN) was 49.1% and the growth, % of control at 10 µM [7] was 87.4%. The growth, % of control at 10 µM [8] was 94.4%, the growth, % of control at 10 µM (SN12C) was 93.5% and the growth, % of control at 10 µM [9] was 90.2%. It also gave a growth, % of control at 10 µM [10] of 94.1%, a growth, % of control at 10 µM [11] of 81.3% and a growth, % of control at 10 µM [12] of 94.1%. The growth, % of control at 10 µM (T47D) was 74.7%, the growth, % of control at 10 µM (MDA-MB-468) was 101% and the growth, % of control at 10 µM (SR) was 77.7%. It also gave a growth, % of control at 10 µM (A549) of 70%, a growth, % of control at 10 µM [13] of 88% and a growth, % of control at 10 µM (NCI-H226) of 98.9%. The growth, % of control at 10 µM (NCI-H23) was 88%, the growth, % of control at 10 µM (NCI-H322M) was 74.1% and the growth, % of control at 10 µM (NCI-H460) was 84.7%. For the same molecule, the growth, % of control at 10 µM (NCI-H522) was 82.7%, the growth, % of control at 10 µM [14] was 93.2% and the growth, % of control at 10 µM [15] was 92.1%. For the same molecule, the growth, % of control at 10 µM [16] was 70.1%, the growth, % of control at 10 µM [17] was 88.7% and the growth, % of control at 10 µM [18] was 89.8%. It also gave a growth, % of control at 10 µM [19] of 80.9%, a growth, % of control at 10 µM [20] of 77% and a growth, % of control at 10 µM [21] of 86.9%. For the same molecule, the growth, % of control at 10 µM [22] was 105%.

COc1ccc(/C(C#N)=C/c2ccc3c(c2)OCCO3)cc1 showed a growth, % of control at 10 µM (U-251) of 36.3%, a growth, % of control at 10 µM [1] of 56.7% and a growth, % of control at 10 µM (M14) of 38.5%. The growth, % of control at 10 µM (MDA-MB-435) was -29.8%, the growth, % of control at 10 µM (SK-MEL-2) was 36% and the growth, % of control at 10 µM (SK-MEL-28) was 75.3%. It also gave a growth, % of control at 10 µM (SK-MEL-5) of 45%, a growth, % of control at 10 µM [2] of 53.7% and a growth, % of control at 10 µM [3] of 71.3%. It also gave a growth, % of control at 10 µM [4] of 94.6%, a growth, % of control at 10 µM [5] of 77.1% and a growth, % of control at 10 µM [6] of 34.4%. For the same molecule, the growth, % of control at 10 µM (786-0) was 80.2%, the growth, % of control at 10 µM (ACHN) was 87.7% and the growth, % of control at 10 µM [7] was 64.2%. The growth, % of control at 10 µM [8] was 77.3%, the growth, % of control at 10 µM (SN12C) was 72.1% and the growth, % of control at 10 µM [9] was 65.2%. The growth, % of control at 10 µM [10] was 84.7%, the growth, % of control at 10 µM [11] was 79.6% and the growth, % of control at 10 µM [12] was 56.6%. For the same molecule, the growth, % of control at 10 µM (T47D) was 40.4%, the growth, % of control at 10 µM (MDA-MB-468) was 14.8% and the growth, % of control at 10 µM (SR) was -1.3%. It also gave a growth, % of control at 10 µM (A549) of 41.5%, a growth, % of control at 10 µM [13] of 68.3% and a growth, % of control at 10 µM (NCI-H226) of 81.2%. It also gave a growth, % of control at 10 µM (NCI-H23) of 78.3%, a growth, % of control at 10 µM (NCI-H322M) of 77.5% and a growth, % of control at 10 µM (NCI-H460) of 33.4%. For the same molecule, the growth, % of control at 10 µM (NCI-H522) was 39.3%, the growth, % of control at 10 µM [14] was 50.5% and the growth, % of control at 10 µM [15] was 55.7%. It also gave a growth, % of control at 10 µM [16] of 38.8%, a growth, % of control at 10 µM [17] of 43.4% and a growth, % of control at 10 µM [18] of 28.8%. The growth, % of control at 10 µM [19] was 71.9%, the growth, % of control at 10 µM [20] was 66.7% and the growth, % of control at 10 µM [21] was 63.7%. It also gave a growth, % of control at 10 µM [22] of 83.3%.
